Measured values as given in US20040137639A1, “Method of judging efficacy of biological state action affecting bioligical state, judging apparatus, judging system, judging program and recording medium holding the program” (priority 2001, published 2004).

System: depressive patient
Experiment: Fluctuation in the difference of Lyapunov exponent and entropy (mirror dynamic) under medication
Type: in vivo, human
Conditions: Patient A or Patient B, early stages of treatment, FIG. 15
Method: Taking for an example the case where the action that may change a biological state is a medication, described below is a judging method for the symmetric property of Lyapunov exponent and entropy directly from the graph where the variations of these exponents with time are recorded.
This means, in other words, there exist fluctuations in the difference between Lyapunov exponent and entropy, and such a state can be called “mirror dynamic”. […] On the other hand, the fluctuation in the difference (shadow area) of Lyapunov exponent and entropy is minor in the early stages of treatment for Patient B, and therefore it can be judged that the effectiveness of medication of cloxazolam (1 mg) is low. […]
In the method according to this embodiment for judging the efficacy of an action, measurements of Lyapunov exponent and entropy are carried out at least twice, i.e. before and after the medication. […] Lyapunov exponent and entropy measured at least once after the medication are compared to the results before the medication, the variation in the symmetric property between the Lyapunov exponent and the entropy and the directional property of temporal variation in the difference between the Lyapunov exponent and the entropy, and then the effectiveness of the drug can be judged. […]

O=C1CN2CCOC2(c2ccccc2Cl)c2cc(Cl)ccc2N1 (stereo not shown) [cloxazolam, Cloxazolam]
effectiveness of medication judged from fluctuation in the difference (shadow area) of Lyapunov exponent and entropy: low
